What all share (type): cell-based, HCV
Assay [1] concerns Pi-Rluc-GT3a-P89L/A166T replicon. Briefly: Transient replicon antiviral assay, Pi-Rluc-GT3a-P89L/A166T in 1C cells. The following applies: for GT3a(P89L/A166T)/Ib EC50 Ratio: EC50 GT3a P89L/A166T divided by EC50 GT1b; for EC50: transient transfection, 1C cells, 3 days, renilla luciferase, mean of at least two experiments. How it is done:
(§1) Replicon RNA were electroporated into 1C cells as described above. After transfection, cells were quickly transferred into 100 mL of pre-warmed culture medium, and 90 μl was seeded in 384-well plates at a density of 2,000 cells/well. Cells were treated with three-fold serial drug dilutions at 10 different concentrations. Cell plates were incubated at 37° C. for 3 days, after which culture medium was removed and cells were assayed for luciferase activity as markers for replicon levels. Luciferase expression was quantified using a commercial luciferase assay (Promega). Luciferase levels were converted into percentages relative to the levels in the untreated controls (defined as 100%), and data were fitted to the logistic dose-response equation y=a/[1+(x/b)^c] using XLFit4 software (IDBS, Emeryville, Calif.).
(§2) To investigate antiviral activity against genotype 3a, five different classes of HCV inhibitors were tested in a transient assay of the genotype 3a Pi-Rluc replicon: NS3 protease, NS5A, NS5B active site, NS5B non-active site, and host factor inhibitors. A standard genotype 1b Pi-Rluc replicon was tested in parallel. The transient replicon replication assays were performed in 1C cells to minimize the potential influence of host cell difference on compound antiviral activities. EC50 values against both genotype 1b and genotype 3a replicons were successfully generated for all inhibitors using a high-throughput 384-well assay measuring Rluc activity (Table 10).
(§3) Five different classes of HCV inhibitors as listed in the first column were evaluated for their antiviral activities against GT1b and GT3a Pi-Rluc replicon in a transient transfection high-throughput 384-well format by measuring renilla luciferase activity. Data presented in the table represent the mean of at least two independent experiments.

Assay [2] has as its system Pi-Rluc-GT3a-P89L/K583E replicon. Briefly: Transient replicon antiviral assay, Pi-Rluc-GT3a-P89L/K583E in 1C cells. The following applies: for GT3a(P89L/K583E)/Ib EC50 Ratio: EC50 GT3a P89L/K583E divided by EC50 GT1b; for EC50: transient transfection, 1C cells, 3 days, renilla luciferase, mean of at least two experiments. As to the method:
as §1, §2, §3

Assay [3] concerns genotype 1b Pi-Rluc replicon. Briefly: Transient replicon antiviral assay, Pi-Rluc-GT1b in 1C cells. The following applies: transient transfection, 3 days, renilla luciferase, mean of at least two experiments. How it is done:
as §1, §2, §3

For assay [4], the system named is genotype 3a Pi-Rluc replicon. Briefly: Transient genotype 3a Pi-Rluc replicon assay, summary over both GT3a replicons. The following applies: for EC50: read-out: EC50 values against genotype 3a. As to the method: as §1, §2

Where two headings read alike, the source gives them in different places.

`COc1ccc2c(O[C@@H]3C[C@H]4C(=O)N[C@]5(C(=O)O)C[C@H]5/C=C\CCCCC[C@H](NC(=O)OC5CCCC5)C(=O)N4C3)cc(-c3csc(NC(C)C)n3)nc2c1` [BILN-2061]: in assay [1], the “GT3a(P89L/A166T)/Ib EC50 Ratio” value is given as 478. For the same compound, the EC50 in assay [1] (Hepatitis C virus, GT3A, 72 h) worked out at 447 nM; in assay [2] (Hepatitis C virus, GT3A, 72 h), 95 nM; in assay [3] (Hepatitis C virus, 72 h), 0.93 nM. The “GT3a(P89L/K583E)/Ib EC50 Ratio” value in assay [2] worked out at 102.

Consider `COC(=O)N[C@H](C(=O)N1CCC[C@H]1c1nc(-c2ccc(-c3ccc(-c4c[nH]c([C@@H]5CCCN5C(=O)[C@@H](NC(=O)OC)C(C)C)n4)cc3)cc2)c[nH]1)C(C)C` [BMS-790052], for which the “GT3a(P89L/A166T)/Ib EC50 Ratio” value in assay [1] was determined as 11. Further, the EC50 is 0.31 nM in assay [1] (Hepatitis C virus, GT3A, 72 h); 0.45 nM in assay [2] (Hepatitis C virus, GT3A, 72 h); 0.03 nM in assay [3] (Hepatitis C virus, 72 h); 0.31 to 0.45 nM in assay [4] (Hepatitis C virus). In addition, the “GT3a(P89L/K583E)/Ib EC50 Ratio” value in assay [2] is 15. In addition, the “fold less active (less potent) against genotype 3a versus genotype 1b” value (shortened to “fold less active (less potent)”) in assay [4] (transient Pi-Rluc replicons) is on record as 11 fold.

Take `CC(C)(C)NC(=O)N[C@H](C(=O)N1C[C@H]2[C@@H]([C@H]1C(=O)NC(CC1CCC1)C(=O)C(N)=O)C2(C)C)C(C)(C)C` (stereo partly shown) [Boceprevir, boceprevir]: in assay [1], the “GT3a(P89L/A166T)/Ib EC50 Ratio” value is on record as 2.44. Moreover, the EC50 came to 460 nM in assay [1] (Hepatitis C virus, GT3A, 72 h) and 273 nM in assay [2] (Hepatitis C virus, GT3A, 72 h). Also, the “GT3a(P89L/K583E)/Ib EC50 Ratio” value in assay [2] was 1.45.

Regarding `CCc1cc(CC[C@]2(C3CCCC3)CC(O)=C(Cc3nc4nc(C)cc(C)n4n3)C(=O)O2)cc(CC)n1` [Filibuvir, filibuvir], the “GT3a(P89L/A166T)/Ib EC50 Ratio” value in assay [1] was determined as 17. Moreover, the EC50 is 2040 nM in assay [1] (Hepatitis C virus, GT3A, 72 h); 895 nM in assay [2] (Hepatitis C virus, GT3A, 72 h); 121 nM in assay [3] (Hepatitis C virus, 72 h). Moreover, in assay [2], the “GT3a(P89L/K583E)/Ib EC50 Ratio” value is 7.4. Also, in assay [4] (transient Pi-Rluc replicons), the “fold less active (less potent)” value is listed as “approximately 17 fold”.

As for `COC(=O)N[C@H](C(=O)N1CC2(CC2)C[C@H]1c1nc(-c2ccc3c(c2)C(F)(F)c2cc(-c4ccc5[nH]c([C@@H]6[C@H]7CC[C@H](C7)N6C(=O)[C@@H](NC(=O)OC)C(C)C)nc5c4)ccc2-3)c[nH]1)C(C)C` [GS-5885], the “GT3a(P89L/A166T)/Ib EC50 Ratio” value in assay [1] came to 22370. Also, the EC50 in assay [1] was 92 nM; in assay [2] it was 40 nM; in assay [3] it was 0.0041 nM; in assay [4] (range over the two GT3a Pi-Rluc replicons), 40 to 92 nM. Also, the “GT3a(P89L/K583E)/Ib EC50 Ratio” value in assay [2] is 9758. Also, the “fold less active (less potent)” value in assay [4] (transient Pi-Rluc replicons) was “approximately 10.000 fold”.

For `CC(C)OC(=O)[C@H](C)N[P@](=O)(OC[C@H]1O[C@@H](n2ccc(=O)[nH]c2=O)[C@](C)(F)[C@@H]1O)Oc1ccccc1` [GS-7977], in assay [1], the “GT3a(P89L/A166T)/Ib EC50 Ratio” value is on record as 0.31 and the EC50 came out at 12 nM. For the same compound, in assay [2], the “GT3a(P89L/K583E)/Ib EC50 Ratio” value came to 0.15 and the concentration for a half-maximal effect (EC50) amounted to 5.8 nM. In assay [3], this compound yielded a 50% effective concentration (EC50) of 40 nM.

As for `Fc1ccccc1-c1nc2ccn(Cc3ccc(-c4ccc(C(F)(F)F)cc4C(F)(F)F)nn3)cc-2n1` [GS-9190], in assay [1], the “GT3a(P89L/A166T)/Ib EC50 Ratio” value worked out at 17 and the response was half-maximal at 42 nM (EC50). In addition, in assay [2], the “GT3a(P89L/K583E)/Ib EC50 Ratio” value was determined as 18 and the concentration giving a half-maximal response (EC50) was found to be 46 nM. The compound also yielded a concentration giving a half-maximal response (EC50) in assay [3] of 3 nM. Further, the “fold less active (less potent)” value in assay [4] (transient Pi-Rluc replicons) was “approximately 17 fold”.

Consider `CC[C@@H]1C[C@]1(NC(=O)[C@@H]1C[C@@H](Oc2cc(-c3csc(NC(C)C)n3)nc3c(Cl)c(OCCN4CCOCC4)ccc23)CN1C(=O)[C@@H](NC(=O)O[C@@H]1C[C@@H]2C[C@@H]2C1)C(C)(C)C)C(=O)O` [GS-9451], for which, in assay [1], the “GT3a(P89L/A166T)/Ib EC50 Ratio” value is 173 and the response was half-maximal at 1650 nM (EC50). Also, in assay [2], the “GT3a(P89L/K583E)/Ib EC50 Ratio” value amounted to 97 and the midpoint of the response, the EC50, lay at 921 nM. This compound showed an EC50 in assay [3] of 10 nM.

Turning to `CC1=CC[C@H](C(=O)N(c2cc(C#CC(C)(C)C)sc2C(=O)O)[C@H]2CC[C@](O)(CO[C@H]3CCOC3)CC2)CC1` [GS-9669], in assay [1], the “GT3a(P89L/A166T)/Ib EC50 Ratio” value was 61 and the 50% effective concentration (EC50) turned out to be 230 nM. Also, in assay [2], the “GT3a(P89L/K583E)/Ib EC50 Ratio” value amounted to 33 and the concentration for a half-maximal effect (EC50) turned out to be 125 nM. For the same compound, the EC50 in assay [3] came to 3.8 nM. In assay [4] (transient Pi-Rluc replicons), the “fold less active (less potent)” value is reported as approximately 60 fold.

With `CNC(=O)c1c(-c2ccc(F)cc2)oc2cc(N(CCO)S(C)(=O)=O)c(C3CC3)cc12` [HCV-796], in assay [1], the “GT3a(P89L/A166T)/Ib EC50 Ratio” value came out at 0.14. The concentration giving a half-maximal response (EC50) turned out to be 2.8 nM in assay [1] (Hepatitis C virus, GT3A, 72 h); 2.4 nM in assay [2] (Hepatitis C virus, GT3A, 72 h); 20 nM in assay [3] (Hepatitis C virus, 72 h). Further, the “GT3a(P89L/K583E)/Ib EC50 Ratio” value in assay [2] turned out to be 0.12. For the same compound, the “fold more active against genotype 3a compared with genotype 1b” value in assay [4] (transient Pi-Rluc replicons) was approximately 7 fold.

With `CN(C)CCN(C)[C@H]1COc2ccccc2-c2c(C3CCCCC3)c3ccc(C(=O)O)cc3n2C1` [MK-3281], the “GT3a(P89L/A166T)/Ib EC50 Ratio” value in assay [1] is reported as 0.47. Further, the 50% effective concentration (EC50) stood at 277 nM in assay [1] (Hepatitis C virus, GT3A, 72 h); 180 nM in assay [2] (Hepatitis C virus, GT3A, 72 h); 587 nM in assay [3] (Hepatitis C virus, 72 h). For the same compound, the “GT3a(P89L/K583E)/Ib EC50 Ratio” value in assay [2] is listed as 0.31. In assay [4] (transient Pi-Rluc replicons), the “fold more active against genotype 3a compared with genotype 1b” value is “about 2 fold”.

`C=C[C@@H]1C[C@]1(NC(=O)[C@@H]1C[C@@H]2CN1C(=O)[C@H](C(C)(C)C)NC(=O)O[C@@H]1C[C@H]1CCCCCc1nc3ccc(OC)cc3nc1O2)C(=O)NS(=O)(=O)C1CC1` [MK-5172]: in assay [1], the “GT3a(P89L/A166T)/Ib EC50 Ratio” value worked out at 74. The EC50 in assay [1] (Hepatitis C virus, GT3A, 72 h) amounted to 60 nM; in assay [2] (Hepatitis C virus, GT3A, 72 h), 23 nM; in assay [3] (Hepatitis C virus, 72 h) it was 0.81 nM. In addition, in assay [2], the “GT3a(P89L/K583E)/Ib EC50 Ratio” value is given as 28.

For `C/C=C/C[C@@H](C)[C@@H](O)[C@H]1C(=O)N[C@@H](CC)C(=O)N(C)[C@H](SCCN(C)C)C(=O)N(C)[C@@H](CC(C)(C)O)C(=O)N[C@@H](C(C)C)C(=O)N(C)[C@@H](CC(C)C)C(=O)N[C@@H](C)C(=O)N[C@H](C)C(=O)N(C)[C@@H](CC(C)C)C(=O)N(C)[C@@H](CC(C)C)C(=O)N(C)[C@@H](C(C)C)C(=O)N1C` [SCY-635], the “GT3a(P89L/A166T)/Ib EC50 Ratio” value in assay [1] is given as 1.2. Also, the concentration giving a half-maximal response (EC50) in assay [1] (Hepatitis C virus, GT3A, 72 h) came to 78 nM; in assay [2] (Hepatitis C virus, GT3A, 72 h), 59 nM; in assay [3] (Hepatitis C virus, 72 h) it was 65 nM. In assay [2], the “GT3a(P89L/K583E)/Ib EC50 Ratio” value is given as 0.91. Moreover, the “potency against genotype 1b and 3a replicons compared (in words)” value in assay [4] (transient Pi-Rluc replicons) was “equivalent potency”.

Turning to `CCC[C@H](NC(=O)[C@@H]1[C@H]2CCC[C@H]2CN1C(=O)[C@@H](NC(=O)[C@@H](NC(=O)c1cnccn1)C1CCCCC1)C(C)(C)C)C(=O)C(=O)NC1CC1` [Telaprevir, telaprevir], the “GT3a(P89L/A166T)/Ib EC50 Ratio” value in assay [1] is listed as 1.6. Also, the EC50 in assay [1] (Hepatitis C virus, GT3A, 72 h) worked out at 650 nM; in assay [2] (Hepatitis C virus, GT3A, 72 h), 1330 nM; in assay [3] (Hepatitis C virus, 72 h) it was 407 nM. The “GT3a(P89L/K583E)/Ib EC50 Ratio” value in assay [2] amounted to 3.27.
